Reference: the supplement of paper PMC10307832

What was measured:
Assay in all cases: relative viability (nuclei count vs DMSO), 5 days (fraction); higher = more cells survive
[1] = system: NCI-H358
Outline: (§1)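 The day after seeding in 1536-well plates, lung cancer cell lines were treated by pin tool with a single drug, or with a fixed anchor-drug dose together with five library-drug doses (not always all listed) in √10 steps. After 5 days, a combined fix-and-stain solution (final 0.05% Triton X-100, 1% formaldehyde, 1 ug/ml Hoechst) was added. Nuclei counted on 4× images gave relative viability as treated counts over vehicle counts, reported as the median of duplicate plates.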

[2] = system: UMC-11
Outline: as §1

[3] = system: PC-14
Outline: as §1

[4] = system: NCI-H838
Outline: as §1

[5] = system: HOP-62
Outline: as §1

[6] = system: NCI-H1993
Outline: as §1

[7] = system: LC-2-ad
Outline: as §1

[8] = system: LU99A
Outline: as §1

[9] = system: EPLC-272H
Outline: as §1

[10] = system: NCI-H650
Outline: as §1

[11] = system: COR-L23
Outline: as §1

[12] = system: NCI-H2085
Outline: as §1

[13] = system: NCI-H1355
Outline: as §1

[14] = system: HARA
Outline: as §1

[15] = system: NCI-H2347
Outline: as §1

[16] = system: NCI-H1651
Outline: as §1

[17] = system: NCI-H2023
Outline: as §1

[18] = system: NCI-H2126
Outline: as §1

[19] = system: HCC-15
Outline: as §1

[20] = system: ABC-1
Outline: as §1

[21] = system: SW 1573
Outline: as §1

[22] = system: NCI-H1915
Outline: as §1

## O=c1cc(-c2cccc3c2Sc2ccccc2S3)oc(N2CCOCC2)c1 + Cc1nc(Nc2ncc(C(=O)Nc3c(C)cccc3Cl)s2)cc(N2CCN(CCO)CC2)n1 [Dasatinib] (partner 0.075 µM)
[1]; first compound 0.08 µM
  relative viability: 0.145
[1]; first compound 0.253 µM
  relative viability: 0.163
[1]; first compound 0.8 µM
  relative viability: 0.148
[1]; first compound 2.53 µM
  relative viability: 0.152
[1]; first compound 8 µM
  relative viability: 0.189
[2]; first compound 0.08 µM
  relative viability: 0.537
[2]; first compound 0.253 µM
  relative viability: 0.591
[2]; first compound 0.8 µM
  relative viability: 0.535
[2]; first compound 2.53 µM
  relative viability: 0.433
[2]; first compound 8 µM
  relative viability: 0.752
[3]; first compound 0.08 µM
  relative viability: 0.225
[3]; first compound 0.253 µM
  relative viability: 0.217
[3]; first compound 0.8 µM
  relative viability: 0.225
[3]; first compound 2.53 µM
  relative viability: 0.175
[3]; first compound 8 µM
  relative viability: 0.253
[4]; first compound 0.08 µM
  relative viability: 0.273
[4]; first compound 0.253 µM
  relative viability: 0.283
[4]; first compound 0.8 µM
  relative viability: 0.276
[4]; first compound 2.53 µM
  relative viability: 0.278
[4]; first compound 8 µM
  relative viability: 0.273
[5]; first compound 0.08 µM
  relative viability: 0.615
[5]; first compound 0.253 µM
  relative viability: 0.835
[5]; first compound 0.8 µM
  relative viability: 0.679
[5]; first compound 2.53 µM
  relative viability: 0.562
[5]; first compound 8 µM
  relative viability: 0.543
[6]; first compound 0.08 µM
  relative viability: 0.519
[6]; first compound 0.253 µM
  relative viability: 0.581
[6]; first compound 0.8 µM
  relative viability: 0.544
[6]; first compound 2.53 µM
  relative viability: 0.525
[6]; first compound 8 µM
  relative viability: 0.56
[7]; first compound 0.08 µM
  relative viability: 0.648
[7]; first compound 0.253 µM
  relative viability: 0.584
[7]; first compound 0.8 µM
  relative viability: 0.532
[7]; first compound 2.53 µM
  relative viability: 0.405
[7]; first compound 8 µM
  relative viability: 0.461
[8]; first compound 0.08 µM
  relative viability: 0.759
[8]; first compound 0.253 µM
  relative viability: 0.61
[8]; first compound 0.8 µM
  relative viability: 0.587
[8]; first compound 2.53 µM
  relative viability: 0.754
[8]; first compound 8 µM
  relative viability: 0.631
[9]; first compound 0.08 µM
  relative viability: 0.331
[9]; first compound 0.253 µM
  relative viability: 0.397
[9]; first compound 0.8 µM
  relative viability: 0.399
[9]; first compound 2.53 µM
  relative viability: 0.306
[9]; first compound 8 µM
  relative viability: 0.347
[10]; first compound 0.08 µM
  relative viability: 0.4
[10]; first compound 0.253 µM
  relative viability: 0.412
[10]; first compound 0.8 µM
  relative viability: 0.506
[10]; first compound 8 µM
  relative viability: 0.488
[11]; first compound 0.08 µM
  relative viability: 0.564
[11]; first compound 0.253 µM
  relative viability: 0.589
[11]; first compound 0.8 µM
  relative viability: 0.571
[11]; first compound 2.53 µM
  relative viability: 0.58
[11]; first compound 8 µM
  relative viability: 0.504
[12]; first compound 0.08 µM
  relative viability: 0.222
[12]; first compound 0.253 µM
  relative viability: 0.238
[12]; first compound 0.8 µM
  relative viability: 0.225
[12]; first compound 2.53 µM
  relative viability: 0.241
[12]; first compound 8 µM
  relative viability: 0.236
[13]; first compound 0.08 µM
  relative viability: 0.754
[13]; first compound 0.253 µM
  relative viability: 0.619
[13]; first compound 0.8 µM
  relative viability: 0.488
[13]; first compound 2.53 µM
  relative viability: 0.615
[13]; first compound 8 µM
  relative viability: 0.694
[14]; first compound 0.08 µM
  relative viability: 0.294
[14]; first compound 0.253 µM
  relative viability: 0.31
[14]; first compound 0.8 µM
  relative viability: 0.234
[14]; first compound 2.53 µM
  relative viability: 0.241
[14]; first compound 8 µM
  relative viability: 0.377
[15]; first compound 0.08 µM
  relative viability: 0.298
[15]; first compound 0.253 µM
  relative viability: 0.286
[15]; first compound 0.8 µM
  relative viability: 0.296
[15]; first compound 2.53 µM
  relative viability: 0.304
[15]; first compound 8 µM
  relative viability: 0.298
[16]; first compound 0.08 µM
  relative viability: 0.401
[16]; first compound 0.253 µM
  relative viability: 0.457
[16]; first compound 0.8 µM
  relative viability: 0.392
[16]; first compound 2.53 µM
  relative viability: 0.312
[16]; first compound 8 µM
  relative viability: 0.387
[17]; first compound 0.08 µM
  relative viability: 0.537
[17]; first compound 0.253 µM
  relative viability: 0.679
[17]; first compound 0.8 µM
  relative viability: 0.498
[17]; first compound 2.53 µM
  relative viability: 0.48
[17]; first compound 8 µM
  relative viability: 0.405
[18]; first compound 0.08 µM
  relative viability: 0.59
[18]; first compound 0.253 µM
  relative viability: 0.456
[18]; first compound 0.8 µM
  relative viability: 0.43
[18]; first compound 2.53 µM
  relative viability: 0.534
[18]; first compound 8 µM
  relative viability: 0.495
[19]; first compound 0.08 µM
  relative viability: 0.606
[19]; first compound 0.253 µM
  relative viability: 0.733
[19]; first compound 0.8 µM
  relative viability: 0.546
[19]; first compound 2.53 µM
  relative viability: 0.563
[19]; first compound 8 µM
  relative viability: 0.659
[20]; first compound 0.08 µM
  relative viability: 0.604
[20]; first compound 0.253 µM
  relative viability: 0.651
[20]; first compound 0.8 µM
  relative viability: 0.531
[20]; first compound 2.53 µM
  relative viability: 0.492
[20]; first compound 8 µM
  relative viability: 0.653
[21]; first compound 0.08 µM
  relative viability: 0.417
[21]; first compound 0.253 µM
  relative viability: 0.66
[21]; first compound 0.8 µM
  relative viability: 0.706
[21]; first compound 2.53 µM
  relative viability: 0.436
[21]; first compound 8 µM
  relative viability: 0.461
[22]; first compound 0.08 µM
  relative viability: 0.296
[22]; first compound 0.253 µM
  relative viability: 0.351
[22]; first compound 0.8 µM
  relative viability: 0.309
[22]; first compound 2.53 µM
  relative viability: 0.306
[22]; first compound 8 µM
  relative viability: 0.337
